Data taken from US20220362182A1, “METHODS FOR REVERSING HEPATIC STEATOSIS” (BRIGHTSEED, INC., priority 2020, published 2022).
“Also recorded” adds a separate entry of the source. Where two headings read alike, the source gives them in different places.

Key:
[1] = tested on: dihydroceramides; assay: lipidomic analysis of livers from mice injected IP; format: in vivo, mouse; settings: livers from mice injected IP for 2 weeks
Procedure: (§1) Ceramides and dihydroceramides were measured in the UCSD Lipidomics Core Facility as previously described (Quehenberger et al.). Briefly, samples were extracted using the butanol: methanol (BUME) method. The lipid layer was collected and run on a Thermo-Vanquish UPLC (Thermo Scientific) with a Cortecs T3 (C18), 2.1 mm×150 mm; 1.8 uT3 column and a binary solvent system. Mass spectrometry employed a Thermo Q Exactive instrument with MS/MS data dependent acquisition scan mode and LipidSearch software (Thermo Fisher Scientific).

[2] = tested on: p62; assay: p62 Western blot in T6PNE cells; format: cell-based, human; settings: NCT 10 μM, RA 10 μM, fenretinide
Procedure: Whole-cell extracts were prepared by incubation in RIPA buffer (Invitrogen) containing protease inhibitors (Calbiochem, San Diego, Calif.). Protein ([…]) was separated on 12% or 16% Tri-Glycine gels (Invitrogen) and transferred to Immobilon P membrane (0.2 μm pore, Millipore). After 1 h in phosphate-buffered saline-Tween (PBST) with 3% milk, membrane was incubated with antibodies to HNF4α (mouse, Novus, 1:1000), LC3B (rabbit, Novus, 1:500), p62 (SQSTM1, mouse, Santa Cruz, 1:1000) or β-actin (mouse, Santa Cruz, 1:2000), followed by secondary antibody conjugated to horseradish peroxidase (1:5000, Jackson Immune).

[3] = tested on: dihydroceramides; assay: lipidomic analysis of ceramides and dihydroceramides in T6PNE cells; format: cell-based, human; settings: 2 days after treatment
Procedure: as §1

[4] = tested on: SPNS2 mRNA; assay: SPNS2 qPCR in T6PNE cells; format: cell-based, human
Procedure: (§2) Quantitative PCR (Q-PCR) from in vitro cell culture experiments used total RNA purified using RNeasy Kits (Qiagen). For liver tissue samples, total RNA was isolated using Trizol (Invitrogen) and prepared for RNAseq (mouse liver DMSO and NCT, N=3). cDNA was amplified using 3 μg of total RNA using qScript cDNA SuperMix (Quanta BioSciences, Beverly, Mass., USA). QPCR analysis was performed using SYBR® Select Master Mix (Applied Biosystems) and ABI 7900HT (Applied Biosystems, Thermo Fisher Scientific). The Ct values of mRNA expression were then normalized to the 18 s rRNA values and are expressed as fold change over samples from mice fed normal chow for in vivo experiments or DMSO controls for cell culture experiments.

[5] = tested on: hepatic steatosis; assay: oral administration in mice (hepatic steatosis); format: in vivo, mouse; settings: subsequent studies
[6] = tested on: CYP26A1 mRNA; assay: hepatic CYP26A1 mRNA in DIO mice; format: in vivo; settings: mouse liver
Procedure: as §2
For dose response experiments, mice were injected intraperitoneally with 10% DMSO as vehicle control or 4 different doses of NCT (30, 60, 120 and 240 mg/kg of body weight) dissolved in 10% DMSO. Mice received 2 doses per day with a 5 h interval between injections for 3 days. To test the effect of NCT (Sundia MediTech Company, Ltd., Custom synthesis), 200 mg/kg was injected IP bid for 14 days. On day 15, mice received a final dose of NCT followed by IP injection with 3 g/kg dextrose. One h later, blood samples were collected and mice were euthanized using pentobarbital. Total mouse, liver and epididymal fat pad weights were measured. […]

[7] = tested on: C57BL/6J DIO mice; assay: DIO mice injected IP for 14 days (hepatic steatosis); format: in vivo; settings: for serum free fatty acids (FFA): after glucose challenge; for hepatic stored fat by Oil Red O staining: liver sections; for hepatic stored fat by Oil Red O staining / alkaline phosphatase (ALP) / epididymal fat pad weight / hepatic triglyceride content / liver weight / hepatic steatosis: 200 mg/kg; for alkaline phosphatase (ALP) / epididymal fat pad weight / hepatic triglyceride content / liver weight: vs DMSO; for hepatic steatosis: two weeks; for toxicity / general condition: mice, IP, up to the highest dose administered
Procedure: Compounds were injected IP into diet-induced obese mice at a dose of 200 mg/kg bid for two weeks. At that point, mice were sacrificed and organs were harvested for analysis. To test the hypothesis that HNF4a controls hepatic fat storage, N-trans-caffeoyltyramine was administered to C57BL/6J DIO mice maintained on a 60% fat calorie diet. Based upon PK studies with N-trans-caffeoyltyramine, IP injection was chosen for two week for these proof of concept studies. […] It was observed that N-trans-caffeoyltyramine was stimulating lipophagy (FIG. 1A).
Slides containing frozen liver tissue sections from mice were air dried for 10-20 min followed by rehydration in distilled water. Sections were immersed in absolute propylene glycol (Cat #151957, MP Biomedicals, LLC, USA) for 2 min followed by 0.5% in oil red O solution (Cat #K043, Poly Scientific R&D, USA) for 2 h. Slides were then differentiated in 85% propylene glycol solution, washed with dH2O for 2 h, and mounted using glycerin jelly mounting medium. All slides were scanned at a magnification of 20× using the Aperio Scanscope FL system (Aperio Technologies Inc., Vista, Calif., USA). The liver area stained with oil red O was measured using image J software as described, with some modifications. Oil red O-stained liver images were opened in Image J software. Using the Analyze>Set Scale command, the scale bar of the images was set to 200 um. RGB images were then converted into gray scale images using the Image>Type>RGB Stack command and were split into red, blue and green channels. Using the Image>Adjust>Threshold command, the threshold was manually set to highlight the oil red O-stained lipid droplets in the green channel. The same threshold was used for all the images in all treatment groups and the % oil red O-stained area was obtained using the Analyze→Measure tool command. Fold change was calculated by normalizing the values to images from mice fed normal chow.
12-week-old C57BL/6 J DIO male mice (cat #380050) were purchased from Jackson Laboratory and were fed with high fat diet containing 60 kcal % fat (Research Diets cat #D12492). Mice were maintained in a 12-h light/day cycle. After 2 weeks of acclimation, mice with similar body weights were randomly assigned to treatment or control groups.
For dose response experiments, mice were injected intraperitoneally with 10% DMSO as vehicle control or 4 different doses of NCT (30, 60, 120 and 240 mg/kg of body weight) dissolved in 10% DMSO. Mice received 2 doses per day with a 5 h interval between injections for 3 days. To test the effect of NCT (Sundia MediTech Company, Ltd., Custom synthesis), 200 mg/kg was injected IP bid for 14 days. On day 15, mice received a final dose of NCT followed by IP injection with 3 g/kg dextrose. One h later, blood samples were collected and mice were euthanized using pentobarbital. Total mouse, liver and epididymal fat pad weights were measured. Dissected liver samples were washed in cold PBS, cut into small pieces and distributed for analyses. For RNA isolation and ELISA, liver samples were snap frozen using liquid nitrogen and stored at −80° C. For histomorphometry and immunofluorescence analysis, liver samples were fixed in 4% of cold PFA and processed for histology. All animal experiments were approved by the Institutional Animal Care and Use Committee (IACUC) of the Sanford Burnham Prebys Medical Discovery Institute in accordance with national regulations.
The serum FFA level was measured using the Free Fatty Acid Quantification Colorimetric/Fluorometric Kit (Cat #K612, BioVision, USA). Fold change was calculated by normalizing to values from mice fed normal chow.
Serum and liver TG level was measured using the Triglyceride calorimetric Assay Kit (Cat #10010303, Cayman Chemicals, USA). Fold change was calculated by normalizing the values from normal chow mice. […]

[8] = listed as N-trans-caffeoyltyramine
[9] = DIO mice, 200 mg/kg bid IP, 14 days
[10] = DIO mice, 200 mg/kg bid IP, 14 days, listed as N-trans-caffeoyltyramine

With O=C(/C=C/c1ccc(O)c(O)c1)NCCc1ccc(O)cc1 [NCT, N-trans-caffeoyltyramine] the “decrease in ceramide/dihydroceramide ratio in liver” value [1] was “evident as well”, the “p62 protein expression normalized to actin” value [2] was “induced increases” and the dihydroceramide production [3] was “multiple dihydroceramides were increased; also recorded: induced multiple identical dihydroceramides”. For the same molecule, the dihydroceramide production [3, 8] was “Dihydroceramide was induced”, the “SPNS2 expression (mRNA)” value [4] was “induced SPNS2 expression” and the “SPNS2 expression (mRNA)” value [4, 8] was “induced the expression”. For the same molecule, the “hepatic steatosis after oral administration” value [5] was “effective in reducing hepatic steatosis in mice”, the “hepatic CYP26A1 mRNA” value [6] was “induced CYP26a1” and the “color of the liver” value [7, 9] was “shift in the color of the liver from yellow to red”. For the same molecule, the “other markers of liver function in the VetScan panel” value [7, 9] was “no change”, the “serum free fatty acids (FFA)” value [7, 9] was “induced an increase in free fatty acids” and the “serum free fatty acids (FFA)” value [7, 10] was “induced an increase in free fatty acids; also recorded: Serum FFA were increased”. For the same molecule, the “hepatic stored fat by Oil Red O staining” value [7, 9] was “decrease in stored fat by Oil Red O staining”, the “hepatic stored fat by Oil Red O staining” value [7, 10] was “decrease in stored fat by Oil Red O staining; also recorded: significantly reduced the Oil Red O” and the “alkaline phosphatase (ALP)” value [7, 9] was “decreased ALP; also recorded: decrease in ALP”. The “epididymal fat pad weight” value [7, 9] was “increase in epididymal fat pad mass; also recorded: increased weight”, the hepatic triglyceride content [7, 9] was “reduction in the hepatic triglyceride content” and the liver weight [7, 9] was “weighed less than those of the control mice”. For the same molecule, the “alkaline phosphatase (ALP)” value [7, 10] was “ALP was decreased”, the “epididymal fat pad weight” value [7, 10] was “increase in epididymal fat pad mass; also recorded: increase in epididymal fat pad weight” and the hepatic triglyceride content [7, 10] was “hepatic triglyceride content was decreased; also recorded: significantly reduced”. The liver weight [7, 10] was “weighed less than those of the control mice; also recorded: decreased liver weight”, the body weight gain ([7]; DIO mice, 200 mg/kg bid IP, 14 days, vs control) was “gained weight to a similar degree” and the hepatic steatosis ([7]; DIO mice, 200 mg/kg bid IP) was “reversed hepatic steatosis; also recorded: reversal of hepatic steatosis; also recorded: reduction of steatosis”. The hepatic steatosis ([7]; DIO mice, 200 mg/kg bid IP, listed as N-trans-caffeoyltyramine) was “reverses hepatic steatosis”, the “serum TG at week 1” value ([7]; DIO mice, 200 mg/kg bid IP, week 1) was “increased” and the “serum TG at week 2” value ([7]; DIO mice, 200 mg/kg bid IP, week 2, end of the study) was “not at week 2”. The “toxicity / general condition” value [7] was “remained healthy and active; also recorded: unable to establish a maximum tolerated dose because of the lack of toxicity; also recorded: completely nontoxic at the highest dose administered” and the “toxicity / general condition” value [7, 8] was “remained healthy and active”.
